In US20200038420A1, “AMINOSTEROL COMPOSITIONS AND METHODS OF USING THE SAME FOR TREATING DEPRESSION” (Enterin, Inc., priority 2018, published 2020):
Entries after “also recorded” stand apart in the source; their conditions may differ. Structures can show the parent of a compound that is named as a salt. Where two headings read alike, the source gives them in different places.

Tests used:
[1] = system: patients with PD and constipation; experiment: Prokinetic response (CSBM within 24 hours of dosing), Stage 1; assay type: in vivo, human; conditions: Stage 1 (single dose)
From the text: (§1) Tolerability limits included diarrhea or vomiting.

[2] = mice; into the duodenum through the biliary tract; cited from earlier work
[3] = system: IPANs (intrinsic primary afferent neuron); conditions: perfusion through the lumen of isolated bowel segment; increased frequency of propulsive peristaltic contractions; cited from earlier work
[4] = system: patients with PD and constipation; experiment: Adverse events, Phase 2 trial Stage 1 (single escalating oral doses); assay type: in vivo, human; conditions: Stage 1 (10 dosed), single escalating oral doses 25-200 mg
From the text: as §1

[5] = system: patients with PD and constipation; experiment: Circadian rhythm of wrist skin temperature; assay type: in vivo, human; conditions: 12 patients
Description: (6) I-Button Temperature Assessment. The I-Button is a small, rugged self-sufficient system that measures temperature and records the results in a protected memory section. The Thermochron I-Button DS1921H (Maxim Integrated, Dallas, Tex.) was used for skin temperature measurement. I-Buttons were programmed to sample every 10 mins., and attached to a double-sided cotton sport wrist band using Velcro, with the sensor face of the I-Button placed over the inside of the wrist, on the radial artery of the dominant hand. Subjects removed and replaced the data logger when necessary (i.e., to have a bath or shower). […] From the collected data, the mesor, amplitude, acrophase (time of peak temperature), Rayleight test (an index of interdaily stability), mean waveforms are calculated.);
(§2) Assessments were made at baseline and at the end of the fixed dose and washout periods. Circadian system status was evaluated by continuously monitoring wrist skin temperature (Thermochron iButton DS1921H; Maxim, Dallas) following published procedures (Sarabia et al. 2008).
Circadian rhythm of skin temperature was evaluable in 12 patients (i.e., those who had recordings that extended from baseline through washout). Circadian system functionality was evaluated by continuously monitoring wrist skin temperature using a temperature sensor (Thermochron iButton DS1921H; Maxim, Dallas, Tex.) (Sarabia et al. 2008). […]

[6] = system: patients with PD and constipation; experiment: CNS / neurological symptoms, Stage 2 (UPDRS, MMSE, PDHQ, BDI-II); assay type: in vivo, human
From the text: Exploratory end-points, in addition to constipation, included for example, (i) depression assessed using the Beck Depression Inventory (BDI-II) (Steer et al. 2000) and Unified Parkinson's Disease Rating Scale (UPDRS); (ii) cognition assessed using the Mini Mental State Examination (MMSE) (Palsteia et al. 2018), Unified Parkinson's Disease Rating Scale (UPDRS), and Trail Making Test (TMT); (iii) sleep and REM-behavior disorder (RBD) using a daily sleep diary, I-Button Temperature Assessment, a REM sleep behavior disorder (RBD) questionnaire (RBDQ) (Stiasny-Kolster et al. 2007), and the UPDRS; (iv) hallucinations assessed using the PD hallucinations questionnaire (PDHQ) (Papapetropoulos et al. 2008), the UPDRS, and direct questioning; (v) fatigue using the Parkinson's Disease Fatigue Scale (PFS-16) and the UPDRS; (vi) motor functions using the UPDRS; and (vii) non-motor functions using the UPDRS.
as §2
An exploratory analysis was done with respect to the sleep data, the body temperature data, mood, fatigue, hallucinations, cognition and other motor and non-motor symptoms of PD. […]

[7] = system: patients with PD and constipation; experiment: Adverse events, Phase 2 trial Stage 2 (daily oral dosing); assay type: in vivo, human; conditions: Stage 2 (34 dosed), daily oral doses 75-250 mg
Description: (§3) In Stage 2, 34 patients were evaluated.

C. elegans αS model = conditions: cited from earlier work; for Formation of αS aggregates: in vivo, C. elegans model of PD
mouse models of PD = conditions: cited from earlier work
[8] = cited from earlier work
αS = αS (Homo sapiens, UniProt P37840); conditions: in vitro; cited from earlier work
[9] = Oral bioavailability in PD patients (oral PK compared with prior IV PK); assay type: in vivo, human; conditions: this study
Description: PK data were collected on the 10 patients enrolled in Stage 1 and 10 patients enrolled in Stage 2 to determine the extent of systemic absorption. In Stage 1, PK data were obtained at each visit, pre-medication, at 1, 2, 4, 8 and 24 hours (Table 10). In Stage 2, PK was measured on days 1 and 6 of the randomization period pre-medication, at 1, 2, 4 and 8 hours (Table 11).

[10] = system: patients with PD and constipation; experiment: Bowel function / stool related indices, Stage 2; assay type: in vivo, human; conditions: Stage 2 (daily dosing), at 75 mg
Description: Following successful screening, all subjects underwent a 14-day run-in period where the degree of constipation was assessed through a validated daily log (Zinsmeister et al. 2013) establishing baseline CSBMs/week. Subjects with an average of <3 CSBMs/week proceeded to dosing.
as §3
The primary efficacy outcome variable was whether or not a subject was a “success” or “failure”. This is an endpoint based on subject diary entries for the “fixed dose” period prior to the endpoint assessment defined as average complete stool frequency increase by 1 or more over baseline, or 3 or more complete spontaneous stools/week. The subject was deemed a “success” if s/he met one or more of the criteria listed above, otherwise the subject was deemed a “failure”. The primary analysis was based on all subjects with a baseline assessment and an assessment at the end of the “fixed-dose” period and was a comparison of the proportion of successes with 0.10 (the null hypothesis corresponding to no treatment effect).

CC(C)[C@@H](CC[C@@H](C)[C@H]1CC[C@H]2[C@@H]3[C@H](O)C[C@H]4C[C@@H](NCCCNCCCCN)CC[C@]4(C)[C@H]3CC[C@]12C)OS(=O)(=O)O (single isomer, unassigned) [squalamine (ENT-01), squalamine]
Cumulative prokinetic response rate ([1]; at 25 mg): 25% | Cumulative prokinetic response rate ([1]; maximum, at 200 mg): 80% | Clearance and excretion following systemic administration [2]: cleared by the liver and excreted as the intact molecule | Effect on enteric sensory neurons [3]: excitation of IPANs | Abdominal pain, Mild [4]: 2(20) n, % | Abdominal pain, Moderate [4]: 3(30) n, % | Diarrhea, Mild [4]: 1(10) n, % | Diarrhea, Moderate [4]: 3(30) n, % | Diarrhea, Severe [4]: 0 n, % | Difficulty falling asleep, Mild [4]: 0 n, % | Difficulty falling asleep, Moderate [4]: 0 n, % | Dizziness, Mild [4]: 0 n, % | Dizziness, Moderate [4]: 0 n, % | Eye infection, Mild [4]: 0 n, % | Eye infection, Moderate [4]: 0 n, % | Flatulence, Mild [4]: 2(20) n, % | Flatulence, Moderate [4]: 0 n, % | Headache, Mild [4]: 1(10) n, % | Headache, Moderate [4]: 0 n, % | Increased urinary frequency, Mild [4]: 0 n, % | Increased urinary frequency, Moderate [4]: 0 n, % | Nausea, Mild [4]: 4(40) n, % | Nausea, Moderate [4]: 0 n, % | Skin lesions-rash, Mild [4]: 0 n, % | Skin lesions-rash, Moderate [4]: 0 n, % | Urinary retention, Mild [4]: 0 n, % | Urinary retention, Moderate [4]: 0 n, % | Urinary tract infection, Mild [4]: 0 n, % | Urinary tract infection, Moderate [4]: 0 n, % | Vomiting, Mild [4]: 1(10) n, % | Vomiting, Moderate [4]: 0 n, % | Worsening acid reflux, Mild [4]: 0 n, % | Worsening acid reflux, Moderate [4]: 0 n, % | Worsening hemorrhoid, Mild [4]: 0 n, % | Worsening hemorrhoid, Moderate [4]: 0 n, % | Blood in urine, Mild ([4]; unrelated to ENT-01): 1(10) n, % | Blood in urine, Moderate ([4]; unrelated to ENT-01): 0 n, % | Loss of appetite, Mild ([4]; unrelated to ENT-01): 1(10) n, % | Loss of appetite, Moderate ([4]; unrelated to ENT-01): 0 n, % | Lower GI bleed, Severe ([4]; unrelated to ENT-01): 0 n, % | Circadian rhythm parameters (IS, RA, CFI, IV) ([5]; fixed dose versus baseline): improved all markers of healthy circadian function | Circadian rhythm parameters (IS, CFI) ([5]; wash-out period): improvement persisted for several of these circadian parameters | Patients in whom hallucinations and delusions improved or disappeared during treatment ([6]; Stage 2, 5 patients with hallucinations and 1 with delusions at baseline): 5 of 6 | Improvement of UPDRS Part 1 score ([6]; baseline 11.6 to wash-out 9.5): ~20% | Diarrhea, Mild [7]: 12(35)^ n, % | Difficulty falling asleep, Mild [7]: 1(3)^ n, % | Difficulty falling asleep, Moderate [7]: 0 n, % | Eye infection, Mild [7]: 1(3)^ n, % | Eye infection, Moderate [7]: 0 n, % | Flatulence, Mild [7]: 1(3)^ n, % | Flatulence, Moderate [7]: 0 n, % | Headache, Moderate [7]: 0 n, % | Increased urinary frequency, Moderate [7]: 0 n, % | Nausea, Mild [7]: 18(52)^ n, % | Skin lesions-rash, Moderate [7]: 0 n, % | Urinary retention, Mild [7]: 1(3)^ n, % | Urinary retention, Moderate [7]: 0 n, % | Urinary tract infection, Mild [7]: 1(3)^ n, % | Vomiting, Moderate [7]: 0 n, % | Worsening acid reflux, Moderate [7]: 0 n, % | Worsening hemorrhoid, Mild [7]: 1(3)^ n, % | Worsening hemorrhoid, Moderate [7]: 0 n, % | Blood in urine, Mild ([7]; unrelated to ENT-01): 0 n, % | Blood in urine, Moderate ([7]; unrelated to ENT-01): 0 n, % | Loss of appetite, Mild ([7]; unrelated to ENT-01): 0 n, % | Loss of appetite, Moderate ([7]; unrelated to ENT-01): 0 n, % | Muscle paralysis / motor dysfunction (C. elegans αS model; C. elegans αS model): reverses motor dysfunction; also recorded: complete reversal of muscle paralysis | Formation of αS aggregates (C. elegans αS model; listed as ENT-01): inhibit the formation of aggregates of αS | Formation of αS aggregates (C. elegans αS model; listed as squalamine): inhibits the formation of αS aggregates | Gastro-intestinal motility (mouse models of PD; oral, mice with constipation due to overexpression of human αS): stimulates gastro-intestinal motility | Gastrointestinal motility / dysmotility (mouse models of PD; several mouse models of PD): restores gastrointestinal motility; also recorded: reverse gastrointestinal dysmotility | Gastrointestinal motility after intravenous administration ([8]; intravenous, prior studies): not associated with increased gastrointestinal motility | Systemic blood levels, intravenous versus orally administered squalamine ([8]; prior studies): one thousand-fold greater | Formation of αS aggregates (αS): inhibits the formation of αS aggregates | Systemic absorption following oral administration [9]: not significantly absorbed into the systemic circulation | Systemic absorption following oral administration ([9]; listed as aminosterol): negligible | Prokinetic response rate [10]: 26%

CC(C)[C@@H](CC[C@@H](C)[C@H]1CC[C@H]2[C@@H]3[C@H](O)C[C@H]4C[C@@H](NCCCNCCCCN)CC[C@]4(C)[C@H]3CC[C@]12C)OS(=O)(=O)O [Squalamine dilactate salt]
Well tolerated dose, single and repeat intravenous administration ([8]; intravenous, alone or in combination with other agents, Phase 1 and Phase 2 trials): at least 300 mg/m^2
